Test results taken from patent US6221865A, “Inhibitors of protein isoprenyl transferases” (priority 1998, dated 2001).
Counter-ions that a name gives are not always drawn. Like-named read-outs stand apart in the source and are kept apart here.

Molecular target: T1, protein farnesyltransferase (Rattus norvegicus, UniProt Q02293+Q04631)
T1 construct: The enzyme is purified according to Reiss, Y., et al., Cell, 62: 81-88 (1990), utilizing steps one through three; from tissue; host or cells: rat brain
T1 sequence (Q02293 whole entry, one chain of several): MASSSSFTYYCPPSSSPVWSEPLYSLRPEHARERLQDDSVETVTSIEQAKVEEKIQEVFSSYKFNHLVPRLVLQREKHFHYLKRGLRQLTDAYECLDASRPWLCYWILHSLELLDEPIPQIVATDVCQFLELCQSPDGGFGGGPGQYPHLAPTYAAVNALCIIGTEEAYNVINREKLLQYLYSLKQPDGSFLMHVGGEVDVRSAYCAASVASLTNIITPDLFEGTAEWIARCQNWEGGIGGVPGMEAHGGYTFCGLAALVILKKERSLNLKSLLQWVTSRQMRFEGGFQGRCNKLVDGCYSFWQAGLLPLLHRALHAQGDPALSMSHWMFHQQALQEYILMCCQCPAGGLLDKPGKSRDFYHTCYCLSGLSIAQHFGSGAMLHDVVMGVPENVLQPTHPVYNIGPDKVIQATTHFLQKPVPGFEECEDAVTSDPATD
Test: Inhibition of farnesyltransferase (scintillation proximity assay, rat brain enzyme, biotin-K Ras B fragment substrate)
Format: biochemical
Conditions: for % inhibition of farnesyltransferase at 1 × 10^-6 M / inhibition at 1 µM: 1 × 10^-6 M (Table 2); for inhibition at 1 µM: read-out: % inhibition of farnesyltransferase at 1 × 10^-6 M; for % inhibition of farnesyltransferase at 1 × 10^-5 M: 1 × 10^-5 M (Table 1)
Procedure, shortened: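 Enzyme from rat brain, partly purified (steps one to three), assayed by SPA kit using 0.1 mM final biotin-K Ras B peptide as prenyl acceptor rather than biotin-lamin. Activity given as percent inhibition.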

[1] = read-out: % inhibition at 0.01 μM (**), Table 6, ** = 0.01 μM (footnote), title prints 0.01 mM

## CSCC[C@H](NC(=O)c1ccc(CN(CCc2ccccc2)c2cncnc2)cc1-c1ccccc1C)C(=O)O [Example 518]
1 × 10^-8 M (Table 4)
  % inhibition of farnesyltransferase at 1 × 10^-8 M: 90%

## CSCC[C@H](NC(=O)c1ccc(COCc2ccc(CN(C)C)o2)cc1-c1ccccc1C)C(=O)O [Example 435]
  % inhibition of farnesyltransferase at 1 × 10^-6 M: 96%

## CSCC[C@H](NC(=O)c1ccc(CN(CCO)Cc2ccccc2)cc1-c1ccccc1)C(=O)O [Example 515]
  % inhibition of farnesyltransferase at 1 × 10^-6 M: 72%

## CSCCC(CO)NCc1ccc(C(=O)N[C@@H](CCSC)C(=O)O)c(-c2ccccc2)c1 (some centres unmarked) [Example 633]
  % inhibition of farnesyltransferase at 1 × 10^-6 M: 32%

## CSCC[C@H](NC(=O)c1ccc(CSc2ccc(C)cc2C)cc1-c1ccccc1C)C(=O)O [Example 741]
1 × 10^-7 M (Table 3)
  % inhibition of farnesyltransferase at 1 × 10^-7 M: 89%

## CSCC[C@H](NC(=O)c1ccc(NC(=O)[C@@H]2CSCN2)cc1-c1ccccc1)C(=O)O [Example 165]
  % inhibition of farnesyltransferase at 1 × 10^-6 M: 74%

## CSCC[C@H](NC(=O)c1ccc(/C=C/CC2CCCCC2)cc1-c1ccccc1C)C(=O)O [Example 471, N-[4-(3-cyclohexylprop-1-enyl)-2-(2-methylphenyl)benzoyl]methionine lithium salt]
  inhibition at 1 µM: 94%

## CSCC[C@H](NC(=O)c1ccc(CNc2ccc(I)cc2)cc1-c1ccccc1)C(=O)O [Example 688]
  % inhibition of farnesyltransferase at 1 × 10^-5 M: 71%

## CCSC[C@H](CC1CCCCC1)N(C)Cc1ccc(C(=O)N[C@@H](CCSC)C(=O)O)c(-c2ccccc2C)c1 [Example 944]
1 × 10^-8 M (Table 4)
  % inhibition of farnesyltransferase at 1 × 10^-8 M: 88%

## CSCC[C@H](NC(=O)c1ccc(CNc2ccc3c(c2)CCC3)cc1-c1ccccc1)C(=O)O [Example 705]
  % inhibition of farnesyltransferase at 1 × 10^-5 M: 72%

## CSCCC(NC(=O)c1ccc(CNC(CO)c2ccccc2)cc1-c1ccccc1)C(=O)O (centres unmarked) [Example 657]
  % inhibition of farnesyltransferase at 1 × 10^-6 M: 32%

## COc1cc(Cl)ccc1C(=O)Nc1ccc(C(=O)N[C@@H](CCSC)C(=O)O)c(-c2ccccc2)c1 [Example 753]
  % inhibition of farnesyltransferase at 1 × 10^-5 M: 55%

## CSCC[C@H](NC(=O)c1ccc(COc2ccc(Oc3ccccc3)cc2)cc1-c1ccccc1C)C(=O)[O-].[Li+] [Example 795]
1 × 10^-7 M (Table 3)
  % inhibition of farnesyltransferase at 1 × 10^-7 M: 87%

## CSCC[C@H](NC(=O)c1ccc(COC2CCC(NC(=O)OC(C)(C)C)CC2)cc1-c1ccccc1C)C(=O)[O-].[Li+] (some centres unmarked) [Example 817]
1 × 10^-7 M (Table 3)
  % inhibition of farnesyltransferase at 1 × 10^-7 M: 60%

## CSCC[C@H](NC(=O)c1cc(Cc2ccccc2)c(COCc2ccco2)cc1-c1ccccc1C)C(=O)O [Example 924]
  % inhibition of farnesyltransferase at 1 × 10^-6 M: 77%

## CSCC[C@H](NC(=O)c1ccc(CNC(CO)C(O)c2ccccc2)cc1-c1ccccc1)C(=O)O (some centres unmarked) [Example 713]
  % inhibition of farnesyltransferase at 1 × 10^-5 M: 40%

## CSCC[C@H](NC(=O)c1ccc(COCc2cccc3ccccc23)cc1-c1ccccc1C)C(=O)[O-].[Li+] [Example 584]
1 × 10^-7 M (Table 3)
  % inhibition of farnesyltransferase at 1 × 10^-7 M: 96%

## CSCC[C@H](NC(=O)c1ccc(CSCc2ccccc2C)cc1-c1ccccc1C)C(=O)[O-].[Li+] [Example 557]
  % inhibition of farnesyltransferase at 1 × 10^-6 M: 93%

## CSCC[C@H](NC(=O)c1ccc(CN(Cc2ccc3c(c2)OCO3)c2cncnc2)cc1-c1ccccc1C)C(=O)O [Example 837]
1 × 10^-8 M (Table 4)
  % inhibition of farnesyltransferase at 1 × 10^-8 M: 91%

## CSCC[C@H](NC(=O)c1ccc(CNCCS)cc1-c1ccccc1)C(=O)O [Example 626]
  % inhibition of farnesyltransferase at 1 × 10^-6 M: 61%

## CSCC[C@H](NC(=O)c1ccc(COCCCC23CC4CC(CC(C4)C2)C3)cc1-c1ccccc1C)C(=O)[O-].[Li+] [Example 599]
1 × 10^-8 M (Table 4)
  % inhibition of farnesyltransferase at 1 × 10^-8 M: 86%

## CSCC[C@H](NC(=O)c1ccc(CCc2ccc(C3CCCCC3)cc2)cc1-c1ccccc1C)C(=O)O [Example 461, N-[4-(2-(4-cyclohexylphenyl)ethyl)-2-(2-methylphenyl)benzoyl]methionine lithium salt]
read-out: % inhibition of farnesyltransferase at 1 × 10^-7 M, 1 × 10^-7 M (Table 3)
  inhibition at 0.1 µM: 93%

## CSCC[C@H](NC(=O)c1ccc(OCCOC2CCCCC2)cc1-c1ccccc1C)C(=O)[O-].[Li+] [Example 565]
  % inhibition of farnesyltransferase at 1 × 10^-6 M: 94%

## CSCC[C@H](NC(=O)c1ccc(COCc2cccc(C)c2)cc1-c1ccccc1C)C(=O)[O-].[Li+] [Example 578]
1 × 10^-7 M (Table 3)
  % inhibition of farnesyltransferase at 1 × 10^-7 M: 90%

## CSCC[C@H](NC(=O)c1ccc(CN2CCC[C@@H]2COCC2CCCCC2)cc1-c1ccccc1C)C(=O)O [Example 1119, N-[4-(2-cyclohexylmethoxymethylpyrrolidin-1-ylmethyl)-2-(2-methylphenyl)benzoyl]methionine]
[1]
  inhibition at 0.01 µM: 84%

## CCCCC(OCc1ccc(C(=O)N[C@@H](CCSC)C(=O)[O-])c(-c2ccccc2C)c1)c1ccc(-c2ccc(Cl)cc2)o1.[Li+] (some centres unmarked) [Example 826]
1 × 10^-8 M (Table 4)
  % inhibition of farnesyltransferase at 1 × 10^-8 M: 92%

## CCCCC(OCc1ccc(C(=O)N[C@@H](CCSC)C(=O)[O-])c(-c2ccccc2C)c1)c1ccco1.[Li+] (some centres unmarked) [Example 825]
1 × 10^-7 M (Table 3)
  % inhibition of farnesyltransferase at 1 × 10^-7 M: 79%

## CSCC[C@H](NC(=O)c1ccc(/C=C/c2cncnc2)cc1-c1ccccc1C)C(=O)O [Example 494, N-[4-(2-pyrimidin-5-ylethen-1-yl)-2-(2-methylphenyl)benzoyl]methionine lithium salt]
  inhibition at 1 µM: 96%

## Cc1ccccc1-c1cc(CCc2ccccc2Oc2ccccc2)ccc1C(=O)N[C@@H](CC[S+](C)[O-])C(=O)O (some centres unmarked) [Example 456, N-[4-(2-(2-phenoxyphenyl)ethyl)-2-(2-methylphenyl)benzoyl]-2-amino-4-methylsulfinylbutanoic acid lithium salt]
  inhibition at 1 µM: 81%

## CCS(=O)(=O)C[C@H](CC1CCCCC1)NCc1ccc(C(=O)N[C@@H](CCS(C)(=O)=O)C(=O)O)c(-c2ccccc2C)c1 [Example 621]
1 × 10^-7 M (Table 3)
  % inhibition of farnesyltransferase at 1 × 10^-7 M: 98%

## CCCCN(C)N(CCC1CCCCC1)Cc1ccc(C(=O)N[C@@H](CCSC)C(=O)O)c(-c2ccccc2C)c1 [Example 299]
  inhibition at 1 µM: 94%

## CSCC[C@H](NC(=O)c1ccc(CN(Cc2ccccc2)c2ccc(SC)cc2)cc1-c1ccccc1C)C(=O)[O-].[Li+] [Example 852]
1 × 10^-8 M (Table 4)
  % inhibition of farnesyltransferase at 1 × 10^-8 M: 79%

## CSCC[C@H](NC(=O)c1ccc(CNCC(=O)N(Cc2ccccc2)Cc2ccccc2)cc1-c1ccccc1C)C(=O)O [Example 914]
1 × 10^-7 M (Table 3)
  % inhibition of farnesyltransferase at 1 × 10^-7 M: 91%

## CSCC[C@H](NC(=O)c1ccc(CN(Cc2ccco2)C(C)C)cc1-c1ccccc1C)C(=O)O [Example 831]
  % inhibition of farnesyltransferase at 1 × 10^-6 M: 92%

## CSCC[C@H](NC(=O)c1ccc(COC(Cc2ccccc2)c2ccco2)cc1-c1ccccc1C)C(=O)[O-].[Li+] (some centres unmarked) [Example 534]
1 × 10^-7 M (Table 3)
  % inhibition of farnesyltransferase at 1 × 10^-7 M: 84%

## Cc1ccccc1-c1cc(CN(C(C)C)C(C)(C)Cc2ccccc2)ccc1C(=O)N[C@@H](CCS(C)(=O)=O)C(=O)O [Example 321]
  inhibition at 1 µM: 90%

## CSCC[C@H](NC(=O)c1ccc(CN2CCOC[C@@H]2COCC2CCCCC2)cc1-c1ccccc1C)C(=O)O [Example 1109, N-[4-(3(S)-cyclohexylmethoxymethylmorpholin-4-ylmethyl)-2-(2-methylphenyl)benzoyl]methionine]
[1]
  inhibition at 0.01 µM: 74%

## CSCC[C@H](NC(=O)c1ccc(/C=C/CC(O)c2ccc3ccccc3c2)cc1-c1ccccc1C)C(=O)O (some centres unmarked) [Example 474, N-[4-(4-naphth-2-ylbut-4-ol-1-enyl)-2-(2-methylphenyl)benzoyl]methionine]
  inhibition at 1 µM: 92%

## CSCC[C@H](NC(=O)c1ccc(/C=C/c2ccc(Oc3cccc(Cl)c3)cc2)cc1-c1ccccc1C)C(=O)O [Example 858, N-[4-(2-(4-(3-chlorophenoxy)phenyl)ethen-1-yl)-2-(2-methylphenyl)benzoyl]methionine]
read-out: % inhibition of farnesyltransferase at 1 × 10^-8 M, 1 × 10^-8 M (Table 4)
  inhibition at 0.01 µM: 60%

## CSCC[C@H](NC(=O)c1ccc(CN(CCC23CC4CC(CC(C4)C2)C3)c2ccccc2)cc1-c1ccccc1C)C(=O)O [Example 511]
1 × 10^-7 M (Table 3)
  % inhibition of farnesyltransferase at 1 × 10^-7 M: 82%

## CCCCC(CCCC)OCc1ccc(C(=O)N[C@@H](CCSC)C(=O)[O-])c(-c2ccccc2C)c1.[Li+] [Example 942]
1 × 10^-8 M (Table 4)
  % inhibition of farnesyltransferase at 1 × 10^-8 M: 58%

## CSCC[C@H](NC(=O)c1ccc(CNc2cc[nH]n2)cc1-c1ccccc1)C(=O)O [Example 370]
  % inhibition of farnesyltransferase at 1 × 10^-5 M: 86%

## CSCC[C@H](NC(=O)c1ccc(COCc2cnc(-c3ccc(F)cc3)s2)cc1-c1ccccc1C)C(=O)O [Example 900]
1 × 10^-7 M (Table 3)
  % inhibition of farnesyltransferase at 1 × 10^-7 M: 95%

## CSCC[C@H](NC(=O)c1ccc(CN(Cc2ccc(C(F)(F)F)cc2)c2ccccc2)cc1-c1ccccc1C)C(=O)O [Example 782]
  % inhibition of farnesyltransferase at 1 × 10^-6 M: 96%

## COCC1CCC(Cc2ccccc2)N1Cc1ccc(C(=O)N[C@@H](CCSC)C(=O)O)c(-c2ccccc2C)c1 (some centres unmarked) [Example 1118, N-[4-(2-methoxymethyl-5-benzylpyrrolidin-1-ylmethyl)-2-(2-methylphenyl)benzoyl]methionine]
read-out: % inhibition at 0.1 μM (*), Table 6, * = 0.1 μM (footnote), title prints 0.1 mM
  inhibition at 0.1 µM: 86%

## CSCC[C@H](NC(=O)c1ccc(COCCc2ccccc2Cl)cc1-c1ccccc1C)C(=O)[O-].[Li+] [Example 588]
1 × 10^-8 M (Table 4)
  % inhibition of farnesyltransferase at 1 × 10^-8 M: 68%

## CSCCC(NC(=O)c1ccc(NC(=O)c2cncnc2)cc1-c1ccccc1)C(=O)O (centres unmarked) [Example 219]
  % inhibition of farnesyltransferase at 1 × 10^-6 M: 56%
